Assay [1] concerns RPE-J cells. Kind of assay: Effect of compounds on [3H]amantadine uptake by RPE-J cells. It is filed as in vitro ADME, rat. The protocol: (§1) In 10% fetal bovine serum (FBS; Merck, Darmstadt, Germany)-containing Dulbecco’s modified Eagle’s medium (DMEM; Nissui Pharmaceutical, Tokyo, Japan) with 20 mM NaHCO3, 0.19 mM benzylpenicillin potassium, and 0.14 mM streptomycin sulfate, TR-iBRB2 cells (passage number 32–60) were cultured according to previous reports. As described previously, RPE-J cells (passage number 79-92) were cultured in DMEM with 4% FBS, 20 mM NaHCO3, and 0.1 mM non-essential amino acid (FUJIFILM Wako Pure Chemical, Osaka, Japan) containing 0.16 mM benzylpenicillin potassium and 0.17 mM streptomycin sulfate. In accordance with established protocols for the uptake study, the cells were seeded at a density of 1.0 × 10^5 cells/well onto a collagen I-coated 24-well plate (BioCoat™ Collagen I Cellware, Corning, Corning, NY, USA) and cultured for 2 days, at 33 °C, under 5% CO2/air. Referring to the previous reports, we started the uptake reaction, and the details of the procedure are included in the Supplemental Materials.
(§2) Cell/medium ratio = [^3H]compound (dpm) per cell protein (mg)/[^3H]compound (dpm) per medium (µL)(2) […]
(§3) 7.4) three times at 37°C.
(§4) and KHCO3, respectively. Cl--free ECF buffer was prepared by replacing equimolar
(§5) protein assay kit (Bio-Rad, Hercules, CA, USA).

Assay [2] concerns TR-iBRB2 cells. Kind of assay: Effect of compounds on [3H]amantadine uptake by TR-iBRB2 cells. The format is in vitro ADME, rat. The protocol: as §1, §2, §3, §4, §5
Assay [3] has as its system TR-iBRB2 cells. As to conditions: read-out: Km for uptake by TR-iBRB2 cells; cited from earlier work.
Assay [4] has as its system RPE-J cells. Description: Verapamil uptake by RPE-J cells, effect of amantadine. The format is in vitro ADME, rat. On the procedure:
as §1
Cell/medium ratio = [^3H]compound (dpm) per cell protein (mg)/[^3H]compound (dpm) per medium (µL)(2)
Kinetic parameters for cell uptake, such as the maximal uptake rate (Vmax), Michaelis–Menten constant (Km), and non-saturable uptake clearance (Kd), were obtained by using the nonlinear least-squares regression analysis program (MULTI) with Equations (3)–(5), where the uptake rate of the test compound and its concentration were V and S, respectively. V = (Vmax × S)/(Km + S)(3) V = (Vmax × S)/(Km + S) + Kd × S(4) V = (Vmax1 × S)/(Km1 + S) + (Vmax2 × S)/(Km2 + S)(5) […]
as §3, §4, §5

The mark [5] stands for this setting: compound 0.2 mM, [3H]amantadine 1.67 µM, 3 min, 37 °C.
The mark [6] stands for this setting: compound 2.5 mM, [3H]amantadine 1.67 µM, 3 min, 37 °C.
The mark [7] stands for this setting: Rattus norvegicus, 0.05 h, read-out: [3H]amantadine uptake, % of Control, RPE-J.
The mark [8] stands for this setting: Rattus norvegicus, 0.05 h, read-out: [3H]amantadine uptake, % of Control, TR-iBRB2.
Where [9] appears, read: compound 1.0 mM, [3H]amantadine 1.67 µM, 3 min, 37 °C.

Molecules are shown by their SMILES. Like-named read-outs stand apart in the source and are kept apart here.

In the case of `C[N+](C)(C)C[C@H](O)CC(=O)[O-]` [L-Carnitine], the “[3H]amantadine uptake, % of Control, RPE-J” value with RPE-J cells [1] (setting [5]) is 95.1 ± 5.2 % of Control; with RPE-J cells [1] (setting [6]) it was 119 ± 28 % of Control. In addition, the “[3H]amantadine uptake, % of Control, TR-iBRB2” value with TR-iBRB2 cells [2] (setting [5]) is reported as 111 ± 35 % of Control; in the assay with TR-iBRB2 cells [2] (setting [6]), 99.5 ± 2.3 % of Control.

In the case of `N[C@@H](CCC(=O)O)C(=O)O` [L-Glutamic acid], the figures for the activity at 2500 µM in the assay with RPE-J cells [1] (setting [7]) and in the assay on TR-iBRB2 cells [2] (setting [8]) were 84.5 ± 16.4% and 80.2 ± 10%, respectively.

Take `CC(C)C[C@H](N)C(=O)O` [L-Leucine]: in the assay on RPE-J cells [1] (setting [6]), the “[3H]amantadine uptake, % of Control, RPE-J” value is given as 113 ± 16 % of Control. The “[3H]amantadine uptake, % of Control, TR-iBRB2” value in the assay on TR-iBRB2 cells [2] (setting [6]) is listed as 112 ± 17 % of Control.

As to `C[n+]1ccc(-c2ccccc2)cc1` [MPP^+, 1-methyl-4-phenylpyridinium], the “[3H]amantadine uptake, % of Control, RPE-J” value is given as 75.5 ± 5.0 % of Control with RPE-J cells [1] (setting [5]) and 91.9 ± 5.6 % of Control with RPE-J cells [1] (setting [9]). Besides, in the assay on TR-iBRB2 cells [2] (setting [5]), the “[3H]amantadine uptake, % of Control, TR-iBRB2” value was 106 ± 31 % of Control.

For `CC12CC3CC(C)(C1)CC(N)(C3)C2` [Memantine], the results for the activity at 200 µM in the assay on RPE-J cells [1] (setting [7]) and in the assay with TR-iBRB2 cells [2] (setting [8]) were 123 ± 38% and 16.7 ± 2.2%, respectively. For the same molecule, in the assay on RPE-J cells [1] (setting [7]), the activity at 1000 µM is 27.1 ± 2.6%.

With `Nc1ccc(C(=O)NCC(=O)O)cc1` [PAH, p-aminohippuric acid], the results for the activity at 200 µM in the assay on RPE-J cells [1] (setting [7]) and in the assay on TR-iBRB2 cells [2] (setting [8]) were 139 ± 33% and 85.8 ± 10.8%, respectively.

As a reminder, the Km is the substrate concentration at which the rate is half of its maximum. For `CC(C)NCC(O)COc1cccc2ccccc12` (stereo not drawn) [Propranolol], the “[3H]amantadine uptake, % of Control, RPE-J” value with RPE-J cells [1] (setting [5]) is on record as 15.7 ± 5.9 % of Control. Besides, the Km in the assay on TR-iBRB2 cells [3] was 237 µM. For the same molecule, in the assay on TR-iBRB2 cells [2] (compound 0.2 mM), the “reduction of [3H]amantadine uptake by TR-iBRB2 cells” value is on record as “more than 58%”. Further, the “[3H]amantadine uptake, % of Control, TR-iBRB2” value with TR-iBRB2 cells [2] (setting [5]) is reported as 8.61 ± 0.75 % of Control.

Turning to `COc1ccc(CN(CCN(C)C)c2ccccn2)cc1` [Pyrilamine], the activity at 200 µM with RPE-J cells [1] (setting [7]) was determined as 77.8 ± 38.4%; in the assay with TR-iBRB2 cells [2] (setting [8]), 20.9 ± 1.8%. In addition, in the assay on RPE-J cells [1] (setting [7]), the activity at 1000 µM worked out at 18.2 ± 1.7%.

As to `CCc1nc(N)nc(N)c1-c1ccc(Cl)cc1` [Pyrimethamine], the activity at 200 µM worked out at 88.9 ± 3.3% in the assay with RPE-J cells [1] (setting [7]) and 44.3 ± 8.8% with TR-iBRB2 cells [2] (setting [8]).

`C=C[C@H]1C[N@@]2CC[C@H]1C[C@@H]2[C@@H](O)c1ccnc2ccc(OC)cc12` [Quinidine]: in the assay with RPE-J cells [1] (setting [5]), the “[3H]amantadine uptake, % of Control, RPE-J” value was 34.1 ± 3.0 % of Control. The “[3H]amantadine uptake, % of Control, TR-iBRB2” value with TR-iBRB2 cells [2] (setting [5]) was 13.7 ± 1.8 % of Control.

On to `NCCc1c[nH]c2ccc(O)cc12` [Serotonin], for which the activity at 200 µM with RPE-J cells [1] (setting [7]) is 158 ± 52%; in the assay with TR-iBRB2 cells [2] (setting [8]) it was 126 ± 60%.

Turning to `CC[N+](CC)(CC)CC` [TEA, tetraethylammonium], the figures for the “[3H]amantadine uptake, % of Control, RPE-J” value in the assay with RPE-J cells [1] (setting [5]) and with RPE-J cells [1] (setting [9]) were 87.7 ± 11.8 % of Control and 81.8 ± 10.3 % of Control, respectively. Also, the “[3H]amantadine uptake, % of Control, TR-iBRB2” value in the assay with TR-iBRB2 cells [2] is 117 ± 45 % of Control.

As for `CC(C)(C)NC[C@H](O)COc1nsnc1N1CCOCC1` [Timolol], the “[3H]amantadine uptake, % of Control, RPE-J” value with RPE-J cells [1] (setting [5]) was 59.1 ± 5.1 % of Control. In the assay on TR-iBRB2 cells [2] (setting [5]), the “[3H]amantadine uptake, % of Control, TR-iBRB2” value is 34.6 ± 10.6 % of Control.

Turning to `COc1ccc(CCN(C)CCCC(C#N)(c2ccc(OC)c(OC)c2)C(C)C)cc1OC` (stereo not drawn) [Verapamil], the “[3H]amantadine uptake, % of Control, RPE-J” value with RPE-J cells [1] is 20.5 ± 4.8 % of Control. Besides, in the assay on RPE-J cells [4], the Michaelis constant (Km) came to 55.6 ± 5.2 µM, the Vmax is recorded as 6.31 ± 0.35 nmol/(min·mg protein) and the “reduction of [3H]verapamil uptake by unlabeled verapamil” value is reported as 86%. In addition, the “[3H]amantadine uptake, % of Control, TR-iBRB2” value in the assay on TR-iBRB2 cells [2] was 22.1 ± 6.2 % of Control.

The values above are taken from article PMC8469395 (Pharmaceutics, 2021).
